The source of these data is patent US20130084322A1, “DRUG-IMPREGNATED BIODEGRADABLE STENT AND METHODS OF MAKING THE SAME” (Tim Wu, priority 2010, published 2013).

Data set [1] is described as follows: HPLC analysis of paclitaxel in the formed tube/stent (stability to extrusion). The data set is classed as physicochemical. To be noted: extraction in 50% ethanol and 50% methanol overnight at room temperature; FIG. 2. Here is the method:
The 10 μl extracting solutions were further analyzed by HPLC (HP16 series 1090, Hewlett-Packard Co. Palo Alto, Calif.). The samples were analyzed on a C18-reverse phase column (HP: 4.6×100 mm RP18) using a mobile phase consisting of 0.005% TFA buffer (0.05 ml Trifluoroacetic acid in 1000 ml acetonitrile) delivered at a flow rate of 1.0 mL/min.

For data set [2] the following is noted: after releasing from stent; through specific binding to binding proteins; cited from earlier work.

Entries after “also recorded” stand apart in the source; their conditions may differ.

On to `CC(=O)O[C@H]1C(=O)[C@@]2(C)[C@H]([C@H](OC(=O)c3ccccc3)[C@]3(O)C[C@H](OC(=O)[C@H](O)[C@@H](NC(=O)c4ccccc4)c4ccccc4)C(C)=C1C3(C)C)[C@]1(OC(C)=O)CO[C@@H]1C[C@@H]2O` [paclitaxel], for which the “stability of paclitaxel during extrusion (HPLC peaks, pre-extrusion vs stent samples)” value in data set [1] was “not decomposed during extrusion; also recorded: survived the elevated extrusion temperature and are stable inside the stent strut”.
As to `CO[C@H]1C[C@@H]2CC[C@@H](C)[C@@](O)(O2)C(=O)C(=O)N2CCCC[C@H]2C(=O)O[C@H]([C@H](C)C[C@@H]2CC[C@@H](O)[C@H](OC)C2)CC(=O)[C@H](C)/C=C(\C)[C@@H](O)[C@@H](OC)C(=O)[C@H](C)C[C@H](C)/C=C/C=C/C=C/1C` [sirolimus], the “retention in blood vessel wall” value in data set [2] is given as “up to three days”.
